As a reminder, the melting point is the temperature, or range, at which the solid turns liquid.

Structures are written as SMILES.

On to `COc1ccc(CSc2nnc(-c3ccc4nccn4c3)o2)cc1C(F)(F)F`, for which the melting point is 146 to 147 °C.

`CCCCc1nc2ccnc(Cl)c2n1Cc1ccc(-c2ccccc2C#N)cc1` came in with a melting point of 134 °C. `CCOC(=O)c1cnn(C)c1O` yielded a melting point of 134 to 135 °C. `CC(C)C(=O)c1c(C(C)C)nn2ccccc12` returned a melting point of 53 to 55 °C. For the compound `c1ccc(CSc2nc3ccccc3[nH]2)cc1`, the melting point lay in the range of 185 to 186 °C.

The compound `O=C(NCc1ccccc1)NNC(=O)c1ccc(Cl)cc1` returned a melting point of 244 to 246 °C. For the compound `CN1CCN(C)c2c(N)cccc2C1=O`, the melting point lay in the range of 165 to 166 °C. On to `COc1cc2ncnc(N3CCC(C(C)CN4CCC(C)NS4(=O)=O)CC3)c2cc1OC` (stereo not given), for which the melting point was 172 to 175 °C. In turn, `CCN1C(=O)c2ccc(C)cc2Oc2ncccc21` displayed a melting point of 88 to 90 °C. With `CCN(CC)CC1CCCCN1CC(=O)N1c2ccccc2C(=O)Nc2cccnc21` (stereo not given), the melting point lay within 210 to 212 °C. In turn, `CCc1cc(OCc2ccccc2)cc(C(=O)OC)c1C(=O)OC` displayed a melting point of 66 to 67 °C. Turning to `Cc1ccc(SSc2ccc(C)cc2C(=O)Nc2ccc(S(N)(=O)=O)cc2)c(C(=O)Nc2ccc(S(N)(=O)=O)cc2)c1`, the melting point was 307 °C. `CCOC(=O)c1c(CCl)nc2ccc(C)cc2c1-c1ccc(OC)c(OC)c1` returned a melting point of 125 to 126 °C. To `COc1cc2c(cc1Nc1ncc(Cl)c(Nc3ccccc3S(=O)(=O)N(C)C)n1)CCN(CC(C)(C)O)CC2` belongs 188 to 189 °C.

Consider `COC(=O)c1cc(N)nn1C`, for which the melting point fell in the range of 114 to 118 °C.

Compound `CC(=O)Oc1cc2c(cc1C(C)(C)C)OC(C)(COc1ccc([N+](=O)[O-])cc1)CC2=O` (stereo not given) had a melting point of 82 to 84 °C.

As to `O=c1ccc(-c2ccc(-n3ccnc3)nc2)n[nH]1`, the melting point lay within 261 to 263 °C.

For the compound `OC1(c2cncs2)CCCc2cc(Cl)ccc21` (stereo not given), the melting point is 108 to 109 °C. As for `O=C(NC[C@@H]1CN2C(=O)C[C@H]2O1)C1CCCCC1` (racemic), the figure is 83 to 85 °C. As for `N=C(NCC1CCCO1)Nc1c([N+](=O)[O-])cnc2ccccc12` (stereo not given), the melting point lay in the range of 210 to 212 °C.

Turning to `O=C1c2c(Cl)cccc2-n2cnc(-c3nc(CN(CC4CC4)CC4CC4)no3)c2[C@@H]2CCN12`, the melting point fell in the range of 155 to 160 °C.

On to `Cc1ccc2[nH]cc(C3=C(Br)C(=O)N(C)C3=O)c2c1`, for which the melting point is 158 to 159 °C. The compound `Cc1ccc2c(c1)C=Cc1cc(C)ccc1C2c1cn(-c2ccnc(N3C[C@H](O)C[C@H]3C(=O)O)n2)c(=O)[nH]c1=O` had a melting point of 208 to 210 °C. `N#Cc1coc2ccc3ccc(O)cc3c2c1=O` had a melting point of 289 to 292 °C. As for `CCCNC(=O)C1(CCCN2CCC(N3Cc4ccccc4C3=O)CC2)c2ccccc2-c2ccccc21`, the melting point lay within 136 to 138 °C. For the compound `NC(=O)c1csc(Cl)c1`, the melting point was 138 to 139 °C. Consider `O=C(NCC12CC3CC(CC(C3)C1)C2)c1cc(-c2cc(F)c(F)cc2C(=O)O)ccc1Cl`, for which the melting point lay in the range of 121 to 125 °C. The compound `CCOC(=O)OC1CCN(C(=O)OCC)Cc2c1nc1ccccc1c2C` (stereo not given) yielded a melting point of 40 °C. `CCCc1nc2c(C)cc(-c3nc4ccccc4n3C)cc2n1Cc1ccc(-c2ccccc2S(=O)(=O)O)cc1` came in with a melting point of 307 to 310 °C. The compound `Cc1cccc(C(C)(C)O)c1N` had a melting point of 78 to 79 °C. To `O=C1CC(CF)(CF)Oc2ccc(C(F)(F)F)cc21` belongs 73 to 74.5 °C. `CN(c1nc(N)no1)c1c(Cl)cccc1Cl`: the melting point was in the range of 177 to 178 °C. The compound `C=CCn1c2ccccc2c2c(N)c(C(=O)OC)c(C)nc21` came in with a melting point of 78 to 85 °C.

Compound `COc1ccc(Cl)cc1C(NC(C)=N)(c1ccccc1)c1ccccc1` had a melting point of 143 to 145 °C. As for `CCOC(=O)c1ccc(NC(=O)CCc2ccc(C)cc2)cc1`, the figure is 154 to 155 °C. Compound `CCC1=C(C(=O)OC)C(c2ccc(C)cc2)C(C#N)=C(CC(C)(C)C)N1` (stereo not given) displayed a melting point of 126 °C. Turning to `OCCCOc1nc(N2CCCCC2)c2nc(OCCCO)nc(N3CCCCC3)c2n1`, the melting point lay within 154 to 156 °C. To `Cc1ccc(-c2nc3c(o2)C(=O)c2ccccc2C3=O)cc1` belongs > 260 °C; to `COc1nc(N)nc2c1ncn2[C@@H]1O[C@H](CO)[C@@H](O)[C@@]1(C)F`, 199 to 202 °C. As for `CC(C)Nc1ncc2c(n1)N(C)C(=O)C2`, the figure is 120 to 123 °C. `NC1=Nc2ccc(Cl)cc2C2CCCC12F` (stereo not given) gave a melting point of 223 °C. On to `CCON(c1ccc([N+](=O)[O-])cc1Cl)S(=O)(=O)c1ccc(C)cc1`, for which the melting point fell in the range of 134 to 135 °C. For `CCNc1nc(N)nc(N)n1`, the melting point was determined as 171 °C. To `COc1ccc2ccccc2c1OP(=O)(O)O` belongs 171 °C; to `CN1C(=O)CCC(C)(C)c2cc([N+](=O)[O-])ccc21`, 115 °C. The compound `c1ccc(CCNc2cc(-n3cccn3)nc(-c3ccco3)n2)nc1` displayed a melting point of 110 to 111 °C. On to `CN1C(=O)c2ccccc2N(N=O)c2ccccc21`, for which the melting point fell in the range of 95 to 98 °C. Compound `O=C1CCC(N2Cc3c(OCc4ccc(OCCN5CCOCC5)cc4)cccc3C2=O)C(=O)N1` (stereo not given) displayed a melting point of 203 to 205 °C. `CCC(CC)Oc1cc(C)nc2c1CCC(=O)N2c1c(C)cc(C)cc1C`: the melting point lay within 138 to 140 °C. To `CC(=O)c1cc(C(C)=O)c(O)cc1N` belongs 227 to 230 °C; to `CC(=O)Nc1ncc(Sc2nnnn2C)s1`, 208 to 210 °C. The compound `COCN1C(=O)OC(C)(C)c2cc(-c3cc(F)cc(C#N)c3)ccc21` displayed a melting point of 169 to 171 °C. With `O=S(=O)(c1ccccc1)C(F)(F)C(F)Cl` (stereo not given), the melting point lay within 38 to 39 °C. Consider `COc1ccc2[nH]c3c(C)c4ccnc(NC5CC(C)(C)NC(C)(C)C5)c4cc3c2c1`, for which the melting point lay within 223 to 225 °C. `CNC(=O)c1ccccc1Nc1nc(Nc2ccc3c(c2)OCCNC3=O)ncc1Cl` yielded a melting point of 293 to 295 °C. For `O=NCNC1=Nc2ccsc2C(c2ccccc2)=NC1`, the melting point is 156 to 159 °C. `CCCCCCCc1ccc(C(=O)c2ccc(C(=O)O)cc2)cc1` came in with a melting point of 181 °C. As for `CC(C)(C)c1ccc(CC(=O)CCCl)cc1`, the melting point is 46 to 49 °C. In the case of `Cn1ccc2cc(N3Cc4c(cccc4[N+](=O)[O-])C3=O)ccc21`, the melting point is 267 to 271 °C. `CCCn1cc(C(=O)OCC)c(=O)c2ccoc21` returned a melting point of 130 °C. Compound `Cc1nc2c3c(c(C(=O)N4CCOCC4)cc2n1C)CCC(c1ccccc1)O3` (stereo not given) displayed a melting point of 291 to 293 °C. As for `CON=C1CN(c2c(F)cc3c(=O)c(C(=O)O)cn(C4CC4)c3c2Cl)CC12CN(C(=O)OC(C)(C)C)C2`, the melting point fell in the range of 203 to 204 °C.

`Nc1nc2c(sc(=O)n2C/C=C\CCl)c(=O)[nH]1` showed a melting point of 200 to 202 °C. In the case of `CC(C)c1nc(-c2ccc(S(C)(=O)=O)cc2)c(-c2ccc(F)cc2)[nH]1`, the melting point was 214 to 215 °C. In turn, `COc1ccc(C)cc1NC(=O)Nc1ccc(N2CCN(C(=O)Nc3ccc(OCCO)cc3C(F)(F)F)CC2)nc1` had a melting point of 198 to 200 °C.

Source of the values: a melting point compilation (Tetko et al.; mined from patent text by program, amines drawn as free bases though some values may be those of a salt).
